Read-outs that look alike come from different tables or passages of the source.
Assays:
[1] = tested on: BAP1 mut mesothelioma PDX model; test: BAP1 mut mesothelioma PDX model (Examples 15-17); format: in vivo, mice; conditions: Compound A-1 10 mg/kg, orally, every other day, 28 days; end of study
Protocol: A subcutaneous xenograft tumor model of human tumor immunodeficient mice was established by cell inoculation: tumor cells in logarithmic growth phase were collected, counted, resuspended in 1×PBS, and the cell suspension concentration was adjusted to 2.5-5×10^7/mL. The tumor cells were inoculated subcutaneously in the right side of immunodeficient mice with a 1 ml syringe ([…]), 5-10×10^6/0.2 mL/mouse. All animal experiments were strictly in accordance with the specifications for the use and management of experimental animals in GenePharma Co., Ltd. and Suzhou Ascentage Pharma Co., Ltd. The calculation of relevant parameters refers to the Chinese NMPA “Guidelines for Non-Clinical Research Techniques of Cytotoxic Anti-tumor Drugs”.
Animal body weight and tumor size were measured twice weekly during the experiment. The state of the animal and the presence or absence of death were observed every day. The growth of tumor and the effects of treatment on normal behavior of animals were monitored routinely, specifically involving experimental animal activity, feeding and drinking, weight gain or loss, eyes, clothing hair and other abnormalities. The deaths and clinical symptoms observed during the experiment were recorded in the raw data. All operations for administration and measurement of mouse body weight and tumor volume were performed in a clean bench. According to the requirements of the experimental protocol, after the end of the last administration, plasma and tumor tissues were collected, weighed and photographed. The plasma and tumor samples were frozen at −80° C. for ready-to-use.
Tumor volume (TV) is calculated as: TV=a×b^2/2, wherein a and b represent the length and width of the tumor to be measured, respectively.
The relative tumor volume (RTV) is calculated as: RTV=Vt/V1, wherein V1 is the tumor volume at the start of grouping and administration, and Vt is the tumor volume measured on the t day after administration.
The evaluation index of anti-tumor activity is the relative tumor proliferation rate T/C (%), and the calculation formula thereof is: relative tumor proliferation rate T/C (%)=(TRTV/CRTV)×100%, TRTV is the RTV of treatment group, CRTV is the RTV of solvent control group.
A dose of drug is considered to be severely toxic if the body weight of mouse is reduced by more than 20% or the number of drug-related deaths exceeds 20%.
According to the description by Clarke R., Issues in experimental design and endpoint analysis in the study of experimental cytotoxic agents in vivo in breast cancer and other models [J]. Breast Cancer Research & Treatment, 1997, 46(2-3): 255-278, synergy analysis was evaluated using the following formula: synergy factor=((A/C)×(B/C))/(AB/C); A=RTV value of drug A alone group; B=RTV value of drug B alone group; C=RTV value of the solvent control group, and AB=RTV value of the A and B combination group.
In this experiment, a BAP1 mut mesothelioma PDX model (Lide Biotech) was established to evaluate the anti-tumor effect of Compound 73. The dosing regimen was as follows: • Compound 73: 50 mg/kg, orally, once per day, for a total of 28 days; • Compound 73: 100 mg/kg, orally, once per day, for a total of 28 days;
In this experiment, a BAP1 mut mesothelioma PDX model (Lide Biotech) was established to evaluate the anti-tumor effect of Compound 73 in combination with Compound A-1. […]

EED (1-441)-His protein = target: T1, EED (1-441)-His protein (Homo sapiens, UniProt O75530); test: EED-H3K27Me3 peptide competition binding assay by AlphaScreen; conditions: read-out: Alpha screen
T1 construct: 20 nM EED (1-441)-His protein
Outline: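 EED(1-441)-His was preincubated 15 min with compound, then biotin-H3K27Me3(19-33) peptide added for 30 min; both were added as 20 nM solutions in 25 mM HEPES pH 8, 0.02% Tween-20, 0.5% BSA. Ni-chelate acceptor and streptavidin donor beads (10 μg/ml each final) were added for 1 h in the dark at RT. Signal read at 615 nm (680 nm excitation), normalised to controls and fitted to dose-response for IC50.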

[2] = tested on: human B cell lymphoma cell KARPAS422; test: Cell proliferation (WST-8), KARPAS422, 7 days; format: cell-based; conditions: KARPAS-422, 168 h, WST-8, Table 4A, read-out: Karpas Cell line
Protocol: Analysis of Cell Proliferation:
To assess the effect of PRC2 inhibition on cell growth, cells were seeded in 96-well cell culture plates at a density of 2 000-3 000 cells/well in 200 μL of culture medium, and treated with serially diluted compounds for 7 days at 37° C. in an atmosphere of 5% CO2. Cell growth was evaluated by a […] WST-8 assay (Dojindo Molecular Technologies) using a Tecan Infinite M1000 multimode microplate reader (Tecan, Morrisville, NC). The WST-8 reagent was added to the plate, incubated for 1-4 h, and read at 450 nm. The readings were normalized to the DMSO-treated cells, and the IC50 was calculated by nonlinear regression analysis using GraphPad Prism 6 software

T1 sequence (O75530 whole entry): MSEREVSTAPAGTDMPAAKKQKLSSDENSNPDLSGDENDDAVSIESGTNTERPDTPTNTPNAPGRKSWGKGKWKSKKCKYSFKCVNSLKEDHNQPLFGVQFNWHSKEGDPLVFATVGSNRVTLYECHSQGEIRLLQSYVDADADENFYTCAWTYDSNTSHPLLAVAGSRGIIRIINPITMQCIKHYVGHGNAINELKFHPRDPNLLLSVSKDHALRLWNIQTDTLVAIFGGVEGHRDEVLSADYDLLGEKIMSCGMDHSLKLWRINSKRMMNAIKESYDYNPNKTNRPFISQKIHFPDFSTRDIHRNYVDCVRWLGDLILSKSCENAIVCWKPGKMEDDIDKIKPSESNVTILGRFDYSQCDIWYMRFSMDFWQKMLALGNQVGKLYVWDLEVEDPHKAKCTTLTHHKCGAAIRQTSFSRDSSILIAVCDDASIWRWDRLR

| Structure (SMILES) | T/C (%) [1] | IC50 (EED (1-441)-His protein; Table 4A) | IC50 [2] | IC50 (EED (1-441)-His protein; IC50 class, Table 4B) |
| --- | --- | --- | --- | --- |
| Cc1ccc(C(=O)Nc2ccc(CN3CCN(C)CC3)c(C(F)(F)F)c2)cc1C#Cc1cnc2[nH]ncc2c1 [Compound A-1] | 74.8% | – | – | – |
| O=C1c2ncn3c(NCc4c(F)ccc5c4CCO5)ncc(c23)-c2ccc(F)cc2CN1CC(F)F [Compound 80, 4-(2,2-difluoroethyl)-7-fluoro-12-(((5-fluoro-2,3-dihydrobenzofuran-4-yl)methyl)amino)-4,5-dihydro-3H-2,4,11,12a-tetraazabenzo[4,5]cycloocta[1,2,3-cd]inden-3-one] | – | 1.61 nM | 2.42 nM | – |
| O=C1c2ncn3c(NCc4c(F)ccc5c4CCO5)ncc(c23)-c2ccc(F)cc2CN1C1CC1 [Compound 64, 4-cyclopropyl-7-fluoro-12-(((5-fluoro-2,3-dihydrobenzofuran-4-yl)methyl)amino)-4,5-dihydro-3H-2,4,11,12a-tetraazabenzo[4,5]cycloocta[1,2,3-cd] inden-3-one] | – | – | 2.44 nM | – |
| CN1CCC(N2Cc3cc(F)ccc3-c3cnc(NCc4c(F)ccc5c4CCO5)n4cnc(c34)C2=O)CC1 [Compound 75, 7-fluoro-12-(((5-fluoro-2,3-dihydrobenzofuran-4-yl)methyl)amino)-4-(1-methylpiperidin-4-yl)-4,5-dihydro-3H-2,4,11,12a-tetraazabenzo[4,5] cycloocta[1,2,3-cd]inden-3-one] | – | 1.72 nM | 11.1 nM | – |
| CC(C)(F)CN1Cc2cc(F)ccc2-c2cnc(NCc3c(F)ccc4c3CCO4)n3cnc(c23)C1=O [Compound 78, 7-fluoro-12-(((5-fluoro-2,3-dihydrobenzofuran-4-yl)methyl)amino)-4-(2-fluoro-2-methylpropyl)-4,5-dihydro-3H-2,4,11,12a-tetraazabenzo[4,5] cycloocta[1,2,3-cd]inden-3-one] | – | 3.23 nM | 34.5 nM | – |
| O=C1c2ncn3c(NCc4c(F)ccc5c4CCO5)ncc(c23)-c2ccc(F)cc2CN1CCF [Compound 79, 7-fluoro-12-(((5-fluoro-2,3-dihydrobenzofuran-4-yl)methyl)amino)-4-(2-fluoroethyl)-4,5-dihydro-3H-2,4,11,12a-tetraazabenzo[4,5]cycloocta [1,2,3-cd]inden-3-one] | – | 1.61 nM | 15.3 nM | – |
| CC(F)(F)CN1Cc2cc(F)ccc2-c2cnc(NCc3c(F)ccc4c3CCO4)n3cnc(c23)C1=O [Compound 76, 4-(2,2-difluoropropyl)-7-fluoro-12-(((5-fluoro-2,3-dihydrobenzofuran-4-yl)methyl)amino)-4,5-dihydro-3H-2,4,11,12a-tetraazabenzo[4,5]cycloocta [1,2,3-cd]inden-3-one] | – | 0.97 nM | 14.5 nM | – |
| O=C1c2ncn3c(NCc4c(F)ccc5c4CCO5)ncc(c23)-c2ccc(F)cc2CN1C1CCOCC1 [Compound 65, 7-fluoro-12-(((5-fluoro-2,3-dihydrobenzofuran-4-yl)methyl)amino)-4-(tetrahydro-2H-pyran-4-yl)-4,5-dihydro-3H-2,4,11,12a-tetraazabenzo[4,5] cycloocta[1,2,3-cd]inden-3-one] | – | – | 0.69 nM | – |
| Cc1ccc2c(n1)CN(CC1CC(C)(O)C1)C(=O)c1ncn3c(NCc4c(F)ccc5c4CCO5)ncc-2c13 (stereo not shown) [Compound 50, 12-(((5-fluoro-2,3-dihydrobenzofuran-4-yl)methyl)amino)-4-((3-hydroxy-3-methylcyclobutyl)methyl)-7-methyl-4,5-dihydro-3H-2,4,6,11,12a-pentaaza benzo[4,5]cycloocta[1,2,3-cd]inden-3-one] | – | 1.16 nM | – | – |
| Cc1ccc2c(n1)CN(CC(F)(F)F)C(=O)c1ncn3c(NCc4c(F)ccc5c4CCCO5)ncc-2c13 [E 39, 12-(((6-fluorochroman-5-yl)methyl)amino)-7-methyl-4-(2,2,2-trifluoroethyl)-4,5-dihydro-3H-2,4,6, 11,12a-pentaazabenzo[4,5]cycloocta[1,2,3-cd] inden-3-one] | – | – | – | 10 to 100 nM |
| Cc1ccc2c(n1)CN(C(C)C)C(=O)c1ncn3c(NCc4c(F)ccc5c4CCO5)ncc-2c13 [E 1, 12-(((5-fluoro-2,3-dihydrobenzofuran-4-yl)methyl)amino)-4-isopropyl-7-methyl-4,5-dihydro-3H-2,4,6,11,12a-pentaazabenzo[4,5]cycloocta[1,2,3-cd] inden-3-one] | – | – | – | < 10 nM |
